From patent US20070258912A1, “Use of Fluorescent Whitening Agents as Antimicrobials” (priority 2004, published 2007)
Like-named read-outs stand apart in the source and are kept apart here.

Columns and labels:
Format in all cases: cell-based
[1] = system: Corynebacterium xerosis; test: MIC in the agar incorporation test
Experimental: (§1) Determination of Minimum Inhibitory Concentration (MIC Values) in the Agar Incorporation Test
(§2) 1% stock solutions of the substances are prepared in an appropriate solvent and diluted in serial dilutions 1:2 (to yield end concentrations in the agar of 500-1.9 ppm). 0.3 ml of each dilution step is mixed with 15 ml of nutrient medium while the latter is still liquid. After the nutrient medium has solidified, 10 μl of each test strain in 0.85% NaCl solution are spotted onto the agar medium.
(§3) The plates are incubated at 37° C. for 24 hours and then the highest dilution (lowest concentration) of the test substance at which growth is no longer observable is determined.
(§4) Test Organisms: Staphylococcus aureus ATCC 6583 Staphylococcus epidermidis ATCC 12228 Corynebacterium xerosis ATCC 373 Propionibacterium acnes ATCC Escherichia coli ATCC 10536 Salmonella choleraesuis ATCC Klebsiella pneumoniae ATCC *Candida albicans ATCC 10231
(§5) *Aspergillus niger ATCC 6275

[2] = system: Klebsiella pneumoniae; test: MIC in the agar incorporation test; settings: Mueller Hinton agar, 24 hours at 37° C.
Experimental: as §1, §2, §3, §4, §5

[3] = system: Propionibacterium acnes; test: MIC in the agar incorporation test; settings: Cutibacterium acnes, read-out: MIC Propionibacterium acnes
Experimental: as §1, §2, §3, §4, §5

[4] = system: Salmonella choleraesuis; test: MIC in the agar incorporation test; settings: Salmonella enterica, Mueller Hinton agar, 24 hours at 37° C.
Experimental: as §1, §2, §3, §4, §5

[5] = system: Staphylococcus aureus; test: MIC in the agar incorporation test
Experimental: as §1, §2, §3, §4, §5

[6] = system: Staphylococcus epidermis; test: MIC in the agar incorporation test
Experimental: as §1, §2, §3, §4, §5

[7] = system: Corynebacterium minutissimum; test: MIC in the agar incorporation test; settings: read-out: MIC Corynebacterium minutissimum
[8] = system: Actinobacillus actinomycetemcomitans; test: MIC against oral microorganisms via broth dilution; settings: Aggregatibacter actinomycetemcomitans, ATCC43718; broth dilution 0.94-15 ppm, 24 h aerobically with 10% CO2, ATCC 43718
Experimental: (§6) Determination of the Minimum Inhibition Concentration (MIC Value) Against Different Oral Microorganisms Via Broth Dilution
(§7) 1500 ppm stock solutions of the substances are prepared in ethanol and pipetted into the growth medium to yield concentrations between 0.94 and 15 ppm. Bacteria are taken from blood agar plates with cotton swabs and adjusted in the appropriate growth medium to yield an optical density corresponding to McFarland 0.5. This suspension is directly used in the case of F. nucleatum and P. nigrescens. For the other strains, the suspension is diluted 1:20. 0.1 ml of these bacterial suspensions are added to 2 ml of the substance solutions. After the incubation time, the tubes are assessed for growth (turbidity).
(§8) Test Organisms: *Actinobacillus actinomycetemcomitans ATCC 43718 *Stretococcus gordonii ATCC 10558 *Streptococcus mutans ATCC 33402 Actinomyces viscosus ATCC 43146 Fusobacterium nucleatum subsp. polymorphum ATCC 10953 Porphyromonas gingivalis ATCC 33277
(§9) Prevotella nigrescens ATCC 33563

[9] = system: Actinomyces viscosus; test: MIC against oral microorganisms via broth dilution
Experimental: as §6, §7, §8, §9

[10] = system: Fusobacterium nucleatum subsp. polymorphum; test: MIC against oral microorganisms via broth dilution
Experimental: as §6, §7, §8, §9

[11] = system: Porphyromnas gingivalis; test: MIC against oral microorganisms via broth dilution; settings: read-out: MIC Porphyromnas gingivalis
Experimental: as §6, §7, §8, §9

[12] = system: Prevotella nigrescens; test: MIC against oral microorganisms via broth dilution
Experimental: as §6, §7, §8, §9

[13] = system: Streptococcus gordonii; test: MIC against oral microorganisms via broth dilution
Experimental: as §6, §7, §8, §9

[14] = system: Streptococcus mutans; test: MIC against oral microorganisms via broth dilution
Experimental: as §6, §7, §8, §9

[15] = system: Escherichia coli; test: MIC in the agar incorporation test; settings: ATCC10536, 24 h, read-out: MIC Escherichia coli
Experimental: as §1, §2, §3, §4, §5

[16] = agar incorporation, Mueller Hinton agar, 24 hours at 37° C.
[17] = ATCC373, 24 h, read-out: MIC Corynebacterium xerosis
[18] = ATCC6583, 24 h, read-out: MIC Staphylococcus aureus
[19] = ATCC12228, 24 h, read-out: MIC Staphylococcus epidermis
[20] = ATCC43146, read-out: MIC Actinomyces viscosus
[21] = ATCC33563, read-out: MIC Prevotella nigrescens
[22] = ATCC10558, 24 h, read-out: MIC Streptococcus gordonii
[23] = ATCC33402, 24 h, read-out: MIC Streptococcus mutans

SMILES	MIC [1, 17]	MIC ([3]; 24 h)	MIC [5, 18]	MIC [6, 19]	MIC ([7]; 24 h)	MIC [9, 20]	MIC [11]	MIC [12, 21]	MIC [13, 22]	MIC [14, 23]	other results
Cc1ccc(/C=C/c2ccc(/C=C/c3ccc(C)c(OCCCN(C)C)c3)cc2)cc1OCCCN(C)C [formula 30]											MIC ([1]; ATCC373, agar incorporation, Mueller Hinton agar, 24 hours at 37° C., ATCC 373, read-out: MIC Corynebacterium xerosis): 3.1 µg/mL; MIC [2]: 25 µg/mL; MIC [3, 16]: 6.3 µg/mL; MIC [4]: 200 µg/mL; MIC ([5]; ATCC6583, agar incorporation, Mueller Hinton agar, 24 hours at 37° C., ATCC 6583, read-out: MIC Staphylococcus aureus): 12.5 µg/mL; MIC ([6]; ATCC12228, agar incorporation, Mueller Hinton agar, 24 hours at 37° C., ATCC 12228, read-out: MIC Staphylococcus epidermis): 12.5 µg/mL; MIC [7, 16]: 3.1 µg/mL; MIC [8]: 15 µg/mL; MIC ([9]; ATCC43146, broth dilution 0.94-15 ppm, 7-10 days at 37° C. anaerobically, ATCC 43146, read-out: MIC Actinomyces viscosus): 3.8 µg/mL; MIC ([10]; ATCC10953, broth dilution 0.94-15 ppm, 7-10 days at 37° C. anaerobically, ATCC 10953, read-out: MIC Fusobacterium nucleatum subsp. polymorphum): 3.8 µg/mL; MIC ([11]; broth dilution 0.94-15 ppm, Columbia bouillon, 7-10 days at 37° C. anaerobically, ATCC 33277): 3.8 µg/mL; MIC ([12]; ATCC33563, broth dilution 0.94-15 ppm, Columbia bouillon, 7-10 days at 37° C. anaerobically, ATCC 33563, read-out: MIC Prevotella nigrescens): 3.8 µg/mL; MIC ([13]; ATCC10558, broth dilution 0.94-15 ppm, 24 h aerobically with 10% CO2, ATCC 10558, read-out: MIC Streptococcus gordonii): 15 µg/mL; MIC ([14]; ATCC33402, broth dilution 0.94-15 ppm, 24 h aerobically with 10% CO2, ATCC 33402, read-out: MIC Streptococcus mutans): 7.5 µg/mL
COc1cccc(/C=C/c2ccc(-c3ccc(/C=C/c4cccc(OC)c4OCCCN(C)C)cc3)cc2)c1OCCCN(C)C [formula 31]	125 µg/mL	7.8 µg/mL	62.5 µg/mL	125 µg/mL	15.6 µg/mL	3.8 µg/mL	1.9 µg/mL	3.75 µg/mL	11.2 µg/mL	7.5 µg/mL	MIC ([10]; ATCC10953, read-out: MIC Fusobacterium nucleatum subsp. polymorphum): 15 µg/mL
C[n+]1ccccc1COc1ccccc1/C=C/c1ccc(-c2ccc(/C=C/c3ccccc3OCc3cccc[n+]3C)cc2)cc1 [formula 32]	100 µg/mL	100 µg/mL		50 µg/mL	200 µg/mL						
C[n+]1ccc(Oc2ccccc2/C=C/c2ccc(-c3ccc(/C=C/c4ccccc4Oc4cc[n+](C)cc4)cc3)cc2)cc1 [formula 34]	3.1 µg/mL	1.6 µg/mL	3.1 µg/mL	3.1 µg/mL	3.1 µg/mL	1.9 µg/mL	7.5 µg/mL	3.8 µg/mL	15 µg/mL	1.9 µg/mL	MIC [15]: 50 µg/mL
